From patent publication US20100130436A1, “CO-ADMINISTRATION OF RANOLAZINE AND CARDIAC GLYCOSIDES” (priority 2008, published 2010)
“And” between values parts separate entries of the source, which are not always exact repeats. Identical values can stand only once. Like-named read-outs stand apart in the source and are kept apart here.

Assays:
[1] = tested on: late sodium current (late INa); assay: Whole-cell patch-clamp of late INa in isolated ventricular myocytes; type: cell-based, guinea pig; details: for effect of ouabain (1 μmol/L) to increase late INa: FIG. 10, intracellular KN-93 10 μmol/L, EGTA 1 mmol/L, KN-92 10 μmol/L; for late INa at the end of a 10-min exposure to ouabain / increase of late INa at the end of a 10-min exposure to ouabain: ouabain 1 μmol/L
cardiac tissues = details: Heers et al. 1991; Damiano et al. 1991; cited from earlier work
[2] = tested on: [Na+]i of guinea pig isolated heart; assay: 23Na-NMR spectroscopy of intracellular sodium concentration in isolated heart
[3] = tested on: guinea pig isolated, perfused heart; details: for developed pressure: FIG. 7
[4] = tested on: isolated guinea pig papillary muscles
cat papillary muscles = details: 1.37 μmol/L ouabain, Lee et al. 1960; cited from earlier work
[5] = tested on: guinea pig isolated, perfused heart; assay: 31P-NMR spectroscopy of energy-related phosphates and pHi in isolated heart
Na+, K+-ATPase = assay: Na+,K+-ATPase activity assay by 86Rb+ uptake of A7r5 cells; type: cell-based; details: for 86Rb+ uptake: control = activity in presence of ouabain
Text: The activity of Na^+, K^+-ATPase was inhibited 77% by 1 mmol/L ouabain in the absence (control) of ranolazine. Values of ^86Rb^+ uptake were 91±11, 98±2.5, and 93±8.3% of control (activity in presence of ouabain) in the presence of 3, 10, and 30 μmol/L ranolazine, respectively.

[6] = agent 10 μmol/L intracellular via patch pipette
[7] = FIG. 1, after ouabain without ranolazine
[8] = 0.75 μmol/L ouabain for 60 min, n=5
[9] = Example 1, ouabain-alone treated hearts
[10] = after ouabain treatment (discussion)
[11] = 0.75 μmol/L ouabain in the presence of 10 μmol/L ranolazine
[12] = 0.75 μmol/L ouabain in the presence of 10 μmol/L ranolazine, 60 min

O=C(O)CN(CCOCCOCCN(CC(=O)O)CC(=O)O)CC(=O)O [EGTA]
effect of ouabain (1 μmol/L) to increase late INa [1]: attenuated | late INa at the end of a 10-min exposure to ouabain ([1]; EGTA 1 mmol/L in patch pipette, from 23±3, n=6): 31±8 pC/pF | increase of late INa at the end of a 10-min exposure to ouabain ([1]; EGTA 1 mmol/L in patch pipette, n=6): 33±28%

COc1ccc(S(=O)(=O)Nc2ccccc2CN(C)C/C=C/c2ccc(Cl)cc2)cc1 [KN-92]
effect of ouabain (1 μmol/L) to increase late INa [1]: not | increase of late INa at the end of a 10-min exposure to ouabain [1, 6]: 273±39% | late INa at the end of a 10-min exposure to ouabain [1, 6]: 72±7 pC/pF

COc1ccc(S(=O)(=O)N(CCO)c2ccccc2CN(C)C/C=C/c2ccc(Cl)cc2)cc1 [KN-93]
effect of ouabain (1 μmol/L) to increase late INa [1]: attenuated | increase of late INa at the end of a 10-min exposure to ouabain [1, 6]: 76±35% | late INa at the end of a 10-min exposure to ouabain [1, 6]: 33±6 pC/pF

CN(c1nc2ccccc2s1)C1CCN(CCCCOc2ccc(F)cc2)CC1 [R56865]
sodium and calcium overload during exposure to cardiac glycosides (cardiac tissues): reduce sodium and calcium overload

NC1=N[C@H](O)[C@H]2[C@H]3O[C@]4(O)O[C@@H]([C@@H](O)[C@@]2(N1)[C@@H]4O)[C@]3(O)CO [TTX, tetrodotoxin]
effect of 1 μmol/L ouabain to increase late INa [1]: partially reversed | late INa [1]: 21.2±7.9 pC/pF | ouabain-induced late current [1]: completely inhibited | [Na+]i [2]: did not significantly change | [Na+]i plateau concentration [2]: 10.5 ± 0.3 mmol/L | decrease in the ouabain-induced rise of [Na+]i [2]: concentration-dependent | LVSP decrease [3]: 9% and 18.2% | effect of ouabain to cause contractile dysfunction [3]: attenuated | episodes of cardiac standstill and changes in LVEDP [3]: neither episodes of cardiac standstill nor changes in LVEDP were observed | maximum value of RPP [3]: 35,569±1,850 mmHg/min and 39,182±2,216 mmHg/min | occurrence of episodes of cardiac standstill caused by ouabain [3]: reduced | positive inotropic effect of ouabain throughout the 60-min exposure [3]: sustained | recovery of contractile function after drug washout [3]: better recovery | responses of hearts exposed to ouabain [3]: comparable to those exposed to ouabain in the presence of 3 union ranolazine | increase of diastolic tension during ouabain treatment [4]: attenuated

C[C@@H]1O[C@@H](O[C@H]2C[C@@H](O)[C@]3(CO)[C@H]4[C@H](O)C[C@]5(C)[C@@H](C6=CC(=O)OC6)CC[C@]5(O)[C@@H]4CC[C@]3(O)C2)[C@H](O)[C@H](O)[C@H]1O [ouabain]
reduction of [ATP] (cat papillary muscles): 42% | reduction of [PCr] (cat papillary muscles): 66% | integrated late INa ([1]; 3 to 5-min exposure to ouabain 1 μmol/L, from 23.5±4.9, n=8): 99.6±15.2 pC/pF | late INa ([1]; ouabain alone 1 μmol/L, 5-10 min, from 21±2, n=6): 84±12 pC/pF | increase of late INa ([1]; ouabain alone 1 μmol/L, 5-10 min, n=6): 318±74% | [Na+]i ([2]; 0.75 μmol/L ouabain for 40 min, absence of ranolazine, n=4): 14.9 ± 0.9 mmol/L | [Na+]i ([2]; 0.75 μmol/L ouabain for 76 min, absence of ranolazine, n=4): 18.1 ± 0.9 mmol/L | [Na+]i plateau level ([2]; 1.3 μmol/L ouabain alone, n=6): 22.9 ± 0.7 mmol/L | increase of [Na+]i ([2]; 1.3 μmol/L ouabain, at 60 min): 3.3 -fold | [Na+]i after washout of ouabain for 20 min ([2]; after 1.3 μmol/L ouabain, n=5): 10.3 ± 1.8 mmol/L | hearts with episodes of cardiac standstill ([3]; 0.75 μmol/L ouabain for 60 min, alone): 11 out of 13 | LVSP ([3]; 0.75 μmol/L ouabain, from 96±2 mmHg, n=13): 148±6 mmHg | RPP ([3]; 0.75 μmol/L ouabain, from 26,497±664 mmHg/min, n=13): 40,676±1159 mmHg/min | increase of LVSP ([3]; 0.75 μmol/L ouabain, n=13): 55±5% | increase of RPP ([3]; 0.75 μmol/L ouabain, n=13): 59±6% | diastolic function (pressure) during 20 min wash out [3, 7]: 34 mmHg | systolic pressure during 20 min wash out [3, 7]: 70 mmHg | Left ventricular systolic pressure, maximum upon infusion with ouabain ([3]; FIG. 1 representative tracing, ouabain without ranolazine, baseline 101 mmHg): 140 mmHg | EDP during toxic effect of ouabain ([3]; FIG. 1 representative tracing, ouabain without ranolazine, increase from 8 mmHg): 45 mmHg | developed pressure ([3]; ouabain-only treated hearts): significantly decreased | LVDevP at the end of washout ([3]; ouabain alone, control 89.1±1.0 mmHg): 36.4±5.9 mmHg | [ATP] decline [5, 8]: 55±6% | [PCr] decline [5, 8]: 56±7% | [Pi] increase [5, 8]: 3.7±0.9 -fold | [Pi] before washout ([5]; 0.75 μmol/L ouabain for 60 min, control 2.9±0.2): 9.1 ± 0.5 mmol/L | pHi ([5]; 0.75 μmol/L ouabain for 60 min, control 7.15±0.01): 7.07±0.01 | decrease of |ΔG~ATP| ([5]; 0.75 μmol/L ouabain for 60 min, control 59.2 kJ/mol): 1.72 ± 0.287 kcal/mol | ATP content reduced by [5, 9]: 64% | intracellular inorganic phosphate (Pi) increase [5, 9]: 4.8 fold | phosphocreatine (PCr) content reduced by [5, 9]: 59% | pH ([5]; Example 1, ouabain-alone treated hearts, baseline 7.14): 7.07 | [Pi] after 20-min washout ([5]; after 0.75 μmol/L ouabain): 5.8 ± 0.4 mmol/L | pHi after 20-min washout ([5]; after 0.75 μmol/L ouabain): 7.15 | loss of [ATP] and [PCr] [5, 10]: over 50% | reduction of the value of |ΔG~ATP| [5, 10]: 1.7 kcal/mol | activity of Na+, K+-ATPase inhibited (Na+, K+-ATPase; 1 mmol/L ouabain, absence of ranolazine): 77%

COc1ccccc1OCC(O)CN1CCN(CC(=O)Nc2c(C)cccc2C)CC1 (stereo not shown) [ranolazine]
effect of 1 μmol/L ouabain to increase late INa ([1]; FIG. 9, ranolazine 10 μmol/L or TTX 3 μmol/L): partially reversed | reduction of late INa ([1]; ranolazine 10 μmol/L in the continuous presence of ouabain 1 μmol/L, n=8): 69±9% | late INa ([1]; ranolazine 10 μmol/L in the continuous presence of ouabain, from 99.6±15.2, n=8): 50.6±13.6 pC/pF | [Na+]i plateau concentration ([2]; 1.3 μmol/L ouabain in the presence of 10 μmol/L ranolazine, n=8): 15.4 ± 0.45 mmol/L | [Na+]i ([2]; 10 μmol/L ranolazine for up to 30 min or 1 μmol/L TTX for 10 min, no ouabain): did not significantly change | ouabain-induced increase in [Na+]i ([2]; 3 or 10 μmol/L ranolazine given after 40 min of 0.75 μmol/L ouabain alone, pooled n=6, FIG. 8C): partially reversed | cardiac [Na+]i during normal perfusion ([2]; Example 1, RAN 10 μM): did not change | [Na+]i accumulation during ouabain treatment ([2]; Example 1, RAN 10 μM, P<0.01): reduced | decrease in the ouabain-induced rise of [Na+]i ([2]; FIG. 8E, Ran 3 and 10, TTX 0.5 and 1 μmol/L): concentration-dependent | [Na+]i ([2]; ranolazine 10 μmol/L for 30 min, no ouabain, n=5, control 6.9±0.6): 6.5 ± 0.4 mmol/L | level of [Na+]i in hearts previously exposed to ouabain alone for 40 min ([2]; ranolazine 10 μmol/L, 30 min, FIG. 8C): did not significantly reduce | effect of ouabain to cause contractile dysfunction [3]: attenuated | mechanical dysfunction (increase in end diastolic pressure, episodes of cardiac standstill) [3]: not observed | occurrence of episodes of cardiac standstill caused by ouabain [3]: reduced | maximum value of RPP ([3]; 0.75 μmol/L ouabain + 3 μmol/L ranolazine, n=8): 40,033±1,477 mmHg/min | positive inotropic response to ouabain during the 60-min exposure ([3]; 0.75 μmol/L ouabain + 5 μmol/L ranolazine): not sustained at a maximal level | maximum value of RPP ([3]; 0.75 μmol/L ouabain + 5 μmol/L ranolazine, n=5): 38,874±2,904 mmHg/min | maximum value of RPP ([3]; 0.75 μmol/L ouabain + 10 μmol/L ranolazine, n=8): 41,079±2,097 mmHg/min | positive inotropic response to ouabain ([3]; Example 1, RAN 10 μM, ouabain 0.75-1.3 μM for 60 min): did not reduce | systolic pressure during Ranolazine delivery ([3]; FIG. 2, 3.3 uM Ran pretreatment): slight drop | maximal inotropic effect of ouabain ([3]; FIG. 2, heart pretreated with 3.3 uM Ran): the same as in the ouabain alone treated hearts | SP (systolic pressure) ([3]; FIG. 3, 5 uM Ran): transient decrease | maximal positive inotropic effect of ouabain ([3]; FIG. 3, 5 uM Ran): not reduced | left ventricular contractile function over the duration of the experiment ([3]; FIG. 4, heart pretreated with 10 uM Ran): stable contractile function | ability of ouabain to significantly increase the pos dP/dt ([3]; FIG. 6): did not affect | RPP increase upon infusion with ouabain ([3]; FIG. 6, hearts pretreated with 10 uM ranolazine): reached the same value as in the absence of ranolazine | RPP during the wash out period ([3]; FIG. 6, ouabain in the presence of ranolazine vs ouabain alone): improved | decrease of RPP (rate pressure product) ([3]; FIG. 6, pretreatment with 10 uM ranolazine, before ouabain): about 20% | developed pressure ([3]; ouabain, hearts treated with 10 uM ranolazine): increased | LVDevP at the end of washout ([3]; ouabain + 3 μmol/L ranolazine): 59.2±5.5 mmHg | positive inotropic effect of ouabain throughout the 60-min exposure ([3]; ouabain + 10 μmol/L ranolazine (n=8) or 1 μmol/L TTX (n=6)): sustained | episodes of cardiac standstill and changes in LVEDP ([3]; ouabain + 10 μmol/L ranolazine or 1 μmol/L TTX): neither episodes of cardiac standstill nor changes in LVEDP were observed | LVDevP at the end of washout ([3]; ouabain + 5 or 10 μmol/L ranolazine or 1 μmol/L TTX): not significantly different from control | recovery of contractile function after drug washout ([3]; ouabain + 5 or 10 μmol/L ranolazine or 1 μmol/L TTX, vs ouabain alone): better recovery | LVSP decrease ([3]; ranolazine alone 3 μmol/L): 8% | LVSP decrease ([3]; ranolazine alone 5 μmol/L): 16.7% | LVSP decrease ([3]; ranolazine alone 10 μmol/L): 15.8% | increase of diastolic tension during ouabain treatment ([4]; 5 and 10 μmol/L ranolazine and 1 μmol/L TTX): attenuated | [Pi] increase [5, 11]: 1.3±0.1 times | fall in pHi [5, 11]: not significant | [ATP] [5, 12]: did not change significantly | [PCr] decrease from baseline [5, 12]: 19±5% | [Pi] increase ([5]; Example 1, RAN + ouabain): 14% | pH ([5]; Example 1, RAN + ouabain): remained constant | ATP and PCr decrease ([5]; Example 1, RAN pretreatment, after 60 min of ouabain treatment): 20% | decrease of |ΔG~ATP| ([5]; ouabain in the presence of 10 μmol/L ranolazine): 0.454 ± 0.14 kcal/mol | concentrations of phosphates or pHi ([5]; ranolazine alone for 10 min): did not alter | 86Rb+ uptake (Na+, K+-ATPase; 3 μmol/L ranolazine): 91±11 % of control | 86Rb+ uptake (Na+, K+-ATPase; 10 μmol/L ranolazine): 98±2.5 % of control | 86Rb+ uptake (Na+, K+-ATPase; 30 μmol/L ranolazine): 93±8.3 % of control | effect on sodium pump activity (Na+, K+-ATPase; 3, 10, 30 μmol/L ranolazine): no measurable effect
